Like-named read-outs stand apart in the source and are kept apart here.
Key:
CHIKV [1] = assay: Cell-based antiviral efficacy in CHIKV-infected Vero cells, plaque titration; conditions: Chikungunya virus, 72 h, read-out: EC50, CHIKV replication
CHIKV [2] = conditions: Vero cells, cited from earlier work
CHIKV [3] = conditions: read-out: 50% inhibitory concentration against CHIKV; Huh-7 cells; cited from earlier work
[4] = monkeys, 500 mg/kg; cited from earlier work

O=c1cc(-c2ccccc2)oc2cc(O)c(O)c(O)c12 [baicalein]
EC50 (CHIKV [1]): 0.52 ± 0.06 µM | 50% inhibitory concentration against CHIKV (CHIKV [2]): 1.891 µg/mL | IC50 (CHIKV [2]; read-out: 50% inhibitory concentration against CHIKV): 7 µM | IC50 (CHIKV [3]): 16.9 µM | Toxicity throughout the pharmacokinetic study [4]: no apparent toxicity
